{"source": "patent US20240024273A1", "about": "“TOPICAL ADMINISTRATION OF 2-(DIETHYLAMINO)ETHYL 2-(4-ISOBUTYLPHENYL)PROPRIONATE FOR TREATMENT OF DISEASES” (TECHFIELDS PHARMA CO., LTD., priority 2020, published 2024)", "tested_on": "Mild to Moderate Osteoarthritis of the Knee", "experiment": "Phase 2 study: WOMAC joint stiffness subscale score", "type": "in vivo, human", "conditions": "for Change of WOMAC Joint Stiffness score from baseline (±SEM) / Percentage of improvement from baseline, WOMAC Joint Stiffness score: all patients taken as active", "from_the_text": "This is a Phase 2, multicenter, randomized, double blind (within dose), placebo controlled, parallel group, proof of concept, and dose range finding study to evaluate the efficacy, safety, and PK of 2-(diethylamino)ethyl 2-(4-isobutylphenyl)propionate hydrochloride spray in adult subjects with clinically symptomatic mild to moderate OA of the knee. For subjects with bilateral knee pain, both knees will be treated, but the most symptomatic knee (i.e., the most painful knee as measured by the Western Ontario and McMaster University Osteoarthritis Index [WOMAC® 3.1] pain subscale score at Screening) will be designated as the target knee for efficacy analyses. For subjects with unilateral knee pain, only the symptomatic (target) knee will be treated.\nAfter a Screening Period of up to 3 weeks and radiographic evaluation of the target knee joint space, a subject will be randomly assigned to 1 of 3 treatment groups in a 1:1:1 ratio with a 2:1 ratio of active:placebo within each treatment group (ie, 2 subjects to active treatment and 1 subject to placebo): • Group A: 8.75 mg 2-(diethylamino)ethyl 2-(4-isobutylphenyl)propionate/knee (2 sprays/knee, one spray to the medial surface and one spray to the lateral surface of the knee), twice daily (BID, approximately every 12 hours; n=50) or placebo (2 sprays/knee), BID (approximately every 12 hours; n=25) for a total of 4 sprays per knee per day; • Group B: 17.5 mg 2-(diethylamino)ethyl 2-(4-isobutylphenyl)propionate/knee (4 sprays/knee, one spray to the medial surface and one spray to the lateral surface of the knee, and one spray to front and one spray to the back of the knee), BID (approximately every 12 hours; n=50) or placebo (4 sprays/knee), BID (approximately every 12 hours; n=25) for a total of 8 sprays per knee per day; • Group C: 35 mg 2-(diethylamino)ethyl 2-(4-isobutylphenyl)propionate/knee (8 sprays/knee, each spray is to be applied to a different non-overlapping area around the knee, and the areas are to be uniformly distributed around the knee), BID (approximately every 12 hours; n=50) or placebo (8 sprays/knee), BID (approximately every 12 hours; n=25) for a total of 16 sprays per knee per day.\nThe VAS version of the WOMAC will be used for the Primary and Secondary Efficacy Endpoints. Efficacy endpoints will be assessed at Screening and Baseline (Day 1) and at the Week 2, Week 4, Week 8, and Week 12/EOS visits.\n3.9.2. Secondary Efficacy Endpoints: • 1. Change from Baseline in the WOMAC (VAS) pain subscale score for the target knee at 2, 4, and 8 weeks of treatment; • 2. Change from Baseline in the WOMAC (VAS) stiffness subscale scores for the target knee and WOMAC (VAS) functional ability subscale scores at 2, 4, 8, and 12 weeks of treatment; • 3. Change from Baseline in the overall WOMAC (VAS) score at 2, 4, 8, and 12 weeks of treatment.\nThe Secondary Efficacy Endpoints, change from Baseline in the WOMAC subscale scores for pain, stiffness, and functional ability, and overall WOMAC score at 2, 4, 8, and 12 weeks of treatment, will be analyzed using the same methods as for the Primary Efficacy Endpoint.\nTo determine this, we assumed that all patients received 2-(diethylamino)ethyl 2-(4-isobutylphenyl)propionate, active drug treatment (i.e. all patients who received 2-(diethylamino)ethyl 2-(4-isobutylphenyl)propionate or placebo treatment for 12 weeks or mixed up treatment during the 12-week treatment, as 2-(diethylamino)ethyl 2-(4-isobutylphenyl)propionate-treated). Based on this assumption, that is, to treat this trial as an open-label study and that all patients received active treatment, we conducted efficacy analysis using top-line efficacy datasets prepared by CRO and the re-analysis results are presented in the following tables (Tables 29-47). […] (William G. Bensen, Justus J. Fiechtner, James 1. McMillen, et. al. Treatment of Osteoarthritis with Celecoxib. Mayo Clin Proc, November 1999. Vol 74, 1095-1105.)", "key": {"[1]": {"conditions": "8.75 mg/knee (BID), Follow up (week 13, day 91)"}, "[2]": {"conditions": "8.75 mg/knee (BID), Week 2 (day 14)"}, "[3]": {"conditions": "8.75 mg/knee (BID), Week 4 (day 28)"}, "[4]": {"conditions": "8.75 mg/knee (BID), Week 8 (day 56)"}, "[5]": {"conditions": "8.75 mg/knee (BID), Week 12 (day 84)"}, "[6]": {"conditions": "17.5 mg/knee (BID), Follow up (week 13, day 91)"}, "[7]": {"conditions": "17.5 mg/knee (BID), Week 2 (day 14)"}, "[8]": {"conditions": "17.5 mg/knee (BID), Week 4 (day 28)"}, "[9]": {"conditions": "17.5 mg/knee (BID), Week 8 (day 56)"}, "[10]": {"conditions": "17.5 mg/knee (BID), Week 12 (day 84)"}, "[11]": {"conditions": "35 mg/knee (BID), Follow up (week 13, day 91)"}, "[12]": {"conditions": "35 mg/knee (BID), Week 2 (day 14)"}, "[13]": {"conditions": "35 mg/knee (BID), Week 4 (day 28)"}}, "data": [{"smiles": "CCN(CC)CCOC(=O)C(C)c1ccc(CC(C)C)cc1", "note": "(stereo not shown) [2-(diethylamino)ethyl 2-(4-isobutylphenyl)propionate]", "values": [{"measurement": "Change of WOMAC Joint Stiffness score from baseline (±SEM), adjusted by […] of the Testing Drug Amount", "setting": "[1]", "value": "−39.1(±5.1) mm"}, {"measurement": "Percentage of improvement from baseline, WOMAC Joint Stiffness score, adjusted by […] of the Testing Drug Amount", "setting": "[1]", "value": "−60.9", "unit": "%"}, {"measurement": "Change of WOMAC Joint Stiffness score from baseline (±SEM)", "setting": "[1]", "value": "−22.8(±3.7) mm"}, {"measurement": "Percentage of improvement from baseline, WOMAC Joint Stiffness score", "setting": "[1]", "value": "−35.5", "unit": "%"}, {"measurement": "Change of WOMAC Joint Stiffness score from baseline (±SEM), adjusted by […] of the Testing Drug Amount", "setting": "[2]", "value": "−20.1(±4.3) mm"}, {"measurement": "Percentage of improvement from baseline, WOMAC Joint Stiffness score, adjusted by […] of the Testing Drug Amount", "setting": "[2]", "value": "−31.2", "unit": "%"}, {"measurement": "Change of WOMAC Joint Stiffness score from baseline (±SEM)", "setting": "[2]", "value": "−11.7(±2.5) mm"}, {"measurement": "Percentage of improvement from baseline, WOMAC Joint Stiffness score", "setting": "[2]", "value": "−18.2", "unit": "%"}, {"measurement": "Change of WOMAC Joint Stiffness score from baseline (±SEM), adjusted by […] of the Testing Drug Amount", "setting": "[3]", "value": "−31.7(±5.7) mm"}, {"measurement": "Percentage of improvement from baseline, WOMAC Joint Stiffness score, adjusted by […] of the Testing Drug Amount", "setting": "[3]", "value": "−49.4", "unit": "%"}, {"measurement": "Change of WOMAC Joint Stiffness score from baseline (±SEM)", "setting": "[3]", "value": "−18.5(±3.3) mm"}, {"measurement": "Percentage of improvement from baseline, WOMAC Joint Stiffness score", "setting": "[3]", "value": "−28.8", "unit": "%"}, {"measurement": "Change of WOMAC Joint Stiffness score from baseline (±SEM), adjusted by […] of the Testing Drug Amount", "setting": "[4]", "value": "−37.6(±6.0) mm"}, {"measurement": "Percentage of improvement from baseline, WOMAC Joint Stiffness score, adjusted by […] of the Testing Drug Amount", "setting": "[4]", "value": "−58.5", "unit": "%"}, {"measurement": "Change of WOMAC Joint Stiffness score from baseline (±SEM)", "setting": "[4]", "value": "−21.9(±3.5) mm"}, {"measurement": "Percentage of improvement from baseline, WOMAC Joint Stiffness score", "setting": "[4]", "value": "−34.1", "unit": "%"}, {"measurement": "Change of WOMAC Joint Stiffness score from baseline (±SEM), adjusted by […] of the Testing Drug Amount", "setting": "[5]", "value": "−38.4(±5.3) mm"}, {"measurement": "Percentage of improvement from baseline, WOMAC Joint Stiffness score, adjusted by […] of the Testing Drug Amount", "setting": "[5]", "value": "−59.7", "unit": "%"}, {"measurement": "Change of WOMAC Joint Stiffness score from baseline (±SEM)", "setting": "[5]", "value": "−22.4(±3.1) mm"}, {"measurement": "Percentage of improvement from baseline, WOMAC Joint Stiffness score", "setting": "[5]", "value": "−34.8", "unit": "%"}, {"measurement": "Change of WOMAC Joint Stiffness score from baseline (±SEM), adjusted by […] of the Testing Drug Amount", "setting": "[6]", "value": "−44.7(±6.2) mm"}, {"measurement": "Percentage of improvement from baseline, WOMAC Joint Stiffness score, adjusted by […] of the Testing Drug Amount", "setting": "[6]", "value": "−65.9", "unit": "%"}, {"measurement": "Change of WOMAC Joint Stiffness score from baseline (±SEM)", "setting": "[6]", "value": "−26.1(±3.6) mm"}, {"measurement": "Percentage of improvement from baseline, WOMAC Joint Stiffness score", "setting": "[6]", "value": "−38.4", "unit": "%"}, {"measurement": "Change of WOMAC Joint Stiffness score from baseline (±SEM), adjusted by […] of the Testing Drug Amount", "setting": "[7]", "value": "−32.2(±4.3) mm"}, {"measurement": "Percentage of improvement from baseline, WOMAC Joint Stiffness score, adjusted by […] of the Testing Drug Amount", "setting": "[7]", "value": "−47.3", "unit": "%"}, {"measurement": "Change of WOMAC Joint Stiffness score from baseline (±SEM)", "setting": "[7]", "value": "−18.8(±2.5) mm"}, {"measurement": "Percentage of improvement from baseline, WOMAC Joint Stiffness score", "setting": "[7]", "value": "−27.6", "unit": "%"}, {"measurement": "Change of WOMAC Joint Stiffness score from baseline (±SEM), adjusted by […] of the Testing Drug Amount", "setting": "[8]", "value": "−40.0(±5.1) mm"}, {"measurement": "Percentage of improvement from baseline, WOMAC Joint Stiffness score, adjusted by […] of the Testing Drug Amount", "setting": "[8]", "value": "−58.8", "unit": "%"}, {"measurement": "Change of WOMAC Joint Stiffness score from baseline (±SEM)", "setting": "[8]", "value": "−23.3(±3.0) mm"}, {"measurement": "Percentage of improvement from baseline, WOMAC Joint Stiffness score", "setting": "[8]", "value": "−34.3", "unit": "%"}, {"measurement": "Change of WOMAC Joint Stiffness score from baseline (±SEM), adjusted by […] of the Testing Drug Amount", "setting": "[9]", "value": "−45.5(±5.3) mm"}, {"measurement": "Percentage of improvement from baseline, WOMAC Joint Stiffness score, adjusted by […] of the Testing Drug Amount", "setting": "[9]", "value": "−66.9", "unit": "%"}, {"measurement": "Change of WOMAC Joint Stiffness score from baseline (±SEM)", "setting": "[9]", "value": "−26.5(±3.1) mm"}, {"measurement": "Percentage of improvement from baseline, WOMAC Joint Stiffness score", "setting": "[9]", "value": "−39.0", "unit": "%"}, {"measurement": "Change of WOMAC Joint Stiffness score from baseline (±SEM), adjusted by […] of the Testing Drug Amount", "setting": "[10]", "value": "−51.1(±5.8) mm"}, {"measurement": "Percentage of improvement from baseline, WOMAC Joint Stiffness score, adjusted by […] of the Testing Drug Amount", "setting": "[10]", "value": "−75.1", "unit": "%"}, {"measurement": "Change of WOMAC Joint Stiffness score from baseline (±SEM)", "setting": "[10]", "value": "−29.8(±3.4) mm"}, {"measurement": "Percentage of improvement from baseline, WOMAC Joint Stiffness score", "setting": "[10]", "value": "−43.8", "unit": "%"}, {"measurement": "Change of WOMAC Joint Stiffness score from baseline (±SEM), adjusted by […] of the Testing Drug Amount", "setting": "[11]", "value": "−41.9(±5.3) mm"}, {"measurement": "Percentage of improvement from baseline, WOMAC Joint Stiffness score, adjusted by […] of the Testing Drug Amount", "setting": "[11]", "value": "−67.4", "unit": "%"}, {"measurement": "Change of WOMAC Joint Stiffness score from baseline (±SEM)", "setting": "[11]", "value": "−24.4(±3.1) mm"}, {"measurement": "Percentage of improvement from baseline, WOMAC Joint Stiffness score", "setting": "[11]", "value": "−39.3", "unit": "%"}, {"measurement": "Change of WOMAC Joint Stiffness score from baseline (±SEM), adjusted by […] of the Testing Drug Amount", "setting": "[12]", "value": "−19.3(±4.6) mm"}, {"measurement": "Percentage of improvement from baseline, WOMAC Joint Stiffness score, adjusted by […] of the Testing Drug Amount", "setting": "[12]", "value": "−31.2", "unit": "%"}, {"measurement": "Change of WOMAC Joint Stiffness score from baseline (±SEM)", "setting": "[12]", "value": "−11.3(±2.7) mm"}, {"measurement": "Percentage of improvement from baseline, WOMAC Joint Stiffness score", "setting": "[12]", "value": "−18.2", "unit": "%"}, {"measurement": "Change of WOMAC Joint Stiffness score from baseline (±SEM), adjusted by […] of the Testing Drug Amount", "setting": "[13]", "value": "−30.2(±5.0) mm"}, {"measurement": "Percentage of improvement from baseline, WOMAC Joint Stiffness score, adjusted by […] of the Testing Drug Amount", "setting": "[13]", "value": "−48.5", "unit": "%"}, {"measurement": "Change of WOMAC Joint Stiffness score from baseline (±SEM)", "setting": "[13]", "value": "−17.6(±2.9) mm"}, {"measurement": "Percentage of improvement from baseline, WOMAC Joint Stiffness score", "setting": "[13]", "value": "−28.3", "unit": "%"}]}]}
